In patent US20240000872A1, “NOVEL BACTERIOPHAGE THAT LYSES ACINETOBACTER GENUS BACTERIA HAVING RESISTANCE TO ANTIBIOTICS” (priority 2020, published 2024):

Tested on: Acinetobacter baumannii strains
Assay: Antibiotic susceptibility test (CLSI disk diffusion test method, read per CLSI 2016); as to antibiotic susceptibility S/I/R: key: ‘S’ means susceptible; ‘I’ means intermediate; ‘R’ means resistant; as to antibiotic susceptibility class: key: ‘S’ means susceptible; ‘I’ means intermediate; ‘R’ means resistant; as to susceptibility category (S/I/R): key: ‘S’ means susceptible; ‘I’ means intermediate; ‘R’ means resistant
Type: cell-based
Parameters: antibiotic susceptibility test value / susceptibility test value (number given before S/I/R) / antibiotic susceptibility value: unit not given here

piperacillin-tazobactam
antibiotic susceptibility class (host strain YMC14/01/C29): R
antibiotic susceptibility test value (host strain YMC14/01/C29): 128
antibiotic susceptibility class (host strain YMC14/01/IP122): R
antibiotic susceptibility test value (host strain YMC14/01/IP122): 128
antibiotic susceptibility class (host strain YMC14/01/L8): R
antibiotic susceptibility test value (host strain YMC14/01/L8): 128
antibiotic susceptibility class (host strain YMC14/01/P31): R
antibiotic susceptibility test value (host strain YMC14/01/P31): 128
antibiotic susceptibility class (host strain YMC14/01/P117): R
antibiotic susceptibility test value (host strain YMC14/01/P117): 128
antibiotic susceptibility class (host strain YMC14/01/P224): R
antibiotic susceptibility test value (host strain YMC14/01/P224): 128
antibiotic susceptibility class (host strain YMC14/01/P727): R
antibiotic susceptibility test value (host strain YMC14/01/P727): 128
antibiotic susceptibility class (host strain YMC14/01/P728): R
antibiotic susceptibility test value (host strain YMC14/01/P728): 128
antibiotic susceptibility class (host strain YMC14/01/R130): R
antibiotic susceptibility test value (host strain YMC14/01/R130): 128
antibiotic susceptibility class (host strain YMC14/01/R160): R
antibiotic susceptibility test value (host strain YMC14/01/R160): 128
antibiotic susceptibility class (host strain YMC14/01/R198): R
antibiotic susceptibility test value (host strain YMC14/01/R198): 128
antibiotic susceptibility class (host strain YMC14/01/R257): R
antibiotic susceptibility test value (host strain YMC14/01/R257): 128
antibiotic susceptibility class (host strain YMC14/01/R270): R
antibiotic susceptibility test value (host strain YMC14/01/R270): 128
antibiotic susceptibility class (host strain YMC14/01/R324): R
antibiotic susceptibility test value (host strain YMC14/01/R324): 128
antibiotic susceptibility class (host strain YMC14/01/R443): R
antibiotic susceptibility test value (host strain YMC14/01/R443): 128
antibiotic susceptibility class (host strain YMC14/01/R451): R
antibiotic susceptibility test value (host strain YMC14/01/R451): 128
antibiotic susceptibility class (host strain YMC14/01/R560): R
antibiotic susceptibility test value (host strain YMC14/01/R560): 128
antibiotic susceptibility class (host strain YMC14/01/R617): R
antibiotic susceptibility test value (host strain YMC14/01/R617): 128
antibiotic susceptibility class (host strain YMC14/01/R671): R
antibiotic susceptibility test value (host strain YMC14/01/R671): 128
antibiotic susceptibility class (host strain YMC14/01/R732): R
antibiotic susceptibility test value (host strain YMC14/01/R732): 128
antibiotic susceptibility class (host strain YMC14/01/R767): R
antibiotic susceptibility test value (host strain YMC14/01/R767): 128
antibiotic susceptibility class (host strain YMC14/01/R904): R
antibiotic susceptibility test value (host strain YMC14/01/R904): 128
antibiotic susceptibility class (host strain YMC14/01/R905): R
antibiotic susceptibility test value (host strain YMC14/01/R905): 128
antibiotic susceptibility class (host strain YMC14/01/R921): R
antibiotic susceptibility test value (host strain YMC14/01/R921): 128
antibiotic susceptibility class (host strain YMC14/01/R941): R
antibiotic susceptibility test value (host strain YMC14/01/R941): 128
antibiotic susceptibility class (host strain YMC14/01/R958): R
antibiotic susceptibility test value (host strain YMC14/01/R958): 128
antibiotic susceptibility class (host strain YMC14/01/R1006): R
antibiotic susceptibility test value (host strain YMC14/01/R1006): 128
antibiotic susceptibility class (host strain YMC14/01/R1199): R
antibiotic susceptibility test value (host strain YMC14/01/R1199): 128
antibiotic susceptibility class (host strain YMC14/01/R1659): R
antibiotic susceptibility test value (host strain YMC14/01/R1659): 128
antibiotic susceptibility class (host strain YMC14/01/R1722): R
antibiotic susceptibility test value (host strain YMC14/01/R1722): 128
antibiotic susceptibility class (host strain YMC14/01/R1752): R
antibiotic susceptibility test value (host strain YMC14/01/R1752): 128
antibiotic susceptibility class (host strain YMC14/01/R2429): R
antibiotic susceptibility test value (host strain YMC14/01/R2429): 128
antibiotic susceptibility class (host strain YMC14/01/R2572): R
antibiotic susceptibility test value (host strain YMC14/01/R2572): 128
antibiotic susceptibility class (host strain YMC14/01/R2855): R
antibiotic susceptibility test value (host strain YMC14/01/R2855): 128
antibiotic susceptibility class (host strain YMC14/01/R2945): R
antibiotic susceptibility test value (host strain YMC14/01/R2945): 128
antibiotic susceptibility class (host strain YMC14/01/R3007): R
antibiotic susceptibility test value (host strain YMC14/01/R3007): 128
antibiotic susceptibility class (host strain YMC14/01/R3129): R
antibiotic susceptibility test value (host strain YMC14/01/R3129): 128
antibiotic susceptibility class (host strain YMC14/01/R3317): R
antibiotic susceptibility test value (host strain YMC14/01/R3317): 128
antibiotic susceptibility class (host strain YMC14/01/R3474): R
antibiotic susceptibility test value (host strain YMC14/01/R3474): 128
antibiotic susceptibility class (host strain YMC14/01/R3574): R
antibiotic susceptibility test value (host strain YMC14/01/R3574): 128
antibiotic susceptibility class (host strain YMC14/01/U313): R
antibiotic susceptibility test value (host strain YMC14/01/U313): 128
antibiotic susceptibility class (host strain YMC14/01/U318): R
antibiotic susceptibility test value (host strain YMC14/01/U318): 128
antibiotic susceptibility class (host strain YMC14/02/L18): R
antibiotic susceptibility test value (host strain YMC14/02/L18): 128
antibiotic susceptibility class (host strain YMC14/02/P47): R
antibiotic susceptibility test value (host strain YMC14/02/P47): 128
antibiotic susceptibility class (host strain YMC14/02/R1860): R
antibiotic susceptibility test value (host strain YMC14/02/R1860): 128
antibiotic susceptibility class (host strain YMC14/02/R2417): R
antibiotic susceptibility test value (host strain YMC14/02/R2417): 128
antibiotic susceptibility class (host strain YMC14/02/R2599): R
antibiotic susceptibility test value (host strain YMC14/02/R2599): 128
antibiotic susceptibility class (host strain YMC14/02/R2668): R
antibiotic susceptibility test value (host strain YMC14/02/R2668): 128
antibiotic susceptibility class (host strain YMC14/02/R2758): R
antibiotic susceptibility test value (host strain YMC14/02/R2758): 128
antibiotic susceptibility class (host strain YMC14/02/R2781): R
antibiotic susceptibility test value (host strain YMC14/02/R2781): 128
antibiotic susceptibility class (host strain YMC14/02/R3106): R
antibiotic susceptibility test value (host strain YMC14/02/R3106): 128
antibiotic susceptibility class (host strain YMC14/02/R3419): R
antibiotic susceptibility test value (host strain YMC14/02/R3419): 128
antibiotic susceptibility class (host strain YMC14/02/U1607): R
antibiotic susceptibility test value (host strain YMC14/02/U1607): 128
antibiotic susceptibility class (host strain YMC14/03/L9): R
antibiotic susceptibility test value (host strain YMC14/03/L9): 128
antibiotic susceptibility class (host strain YMC14/03/P471): R
antibiotic susceptibility test value (host strain YMC14/03/P471): 128
antibiotic susceptibility class (host strain YMC14/03/R122): R
antibiotic susceptibility test value (host strain YMC14/03/R122): 128
antibiotic susceptibility class (host strain YMC14/03/R217): R
antibiotic susceptibility test value (host strain YMC14/03/R217): 128
antibiotic susceptibility class (host strain YMC14/03/R380): R
antibiotic susceptibility test value (host strain YMC14/03/R380): 128
antibiotic susceptibility class (host strain YMC14/03/R618): R
antibiotic susceptibility test value (host strain YMC14/03/R618): 128
antibiotic susceptibility class (host strain YMC14/03/R2144): R
antibiotic susceptibility test value (host strain YMC14/03/R2144): 128
antibiotic susceptibility class (host strain YMC14/03/U4616): R
antibiotic susceptibility test value (host strain YMC14/03/U4616): 128
antibiotic susceptibility class (host strain YMC14/04/R1078): R
antibiotic susceptibility test value (host strain YMC14/04/R1078): 128
antibiotic susceptibility class (host strain YMC14/04/R1080): R
antibiotic susceptibility test value (host strain YMC14/04/R1080): 128
antibiotic susceptibility S/I/R (host strain YMC14/06/R2359): R
antibiotic susceptibility value (host strain YMC14/06/R2359): 128
susceptibility category (S/I/R) (host strain YMC14/06/R2359): R
susceptibility test value (number given before S/I/R) (host strain YMC14/06/R2359): 128
antibiotic susceptibility S/I/R (host strain YMC14/08/R1169): R
antibiotic susceptibility value (host strain YMC14/08/R1169): 128
susceptibility category (S/I/R) (host strain YMC14/08/R1169): R
susceptibility test value (number given before S/I/R) (host strain YMC14/08/R1169): 128
antibiotic susceptibility S/I/R (host strain YMC14/08/T90): R
antibiotic susceptibility value (host strain YMC14/08/T90): 128
susceptibility category (S/I/R) (host strain YMC14/08/T90): R
susceptibility test value (number given before S/I/R) (host strain YMC14/08/T90): 128
antibiotic susceptibility S/I/R (host strain YMC15/02/R436): R
antibiotic susceptibility value (host strain YMC15/02/R436): 128
susceptibility category (S/I/R) (host strain YMC15/02/R436): R
susceptibility test value (number given before S/I/R) (host strain YMC15/02/R436): 128
antibiotic susceptibility S/I/R (host strain YMC15/02/T28): R
antibiotic susceptibility value (host strain YMC15/02/T28): 128
susceptibility category (S/I/R) (host strain YMC15/02/T28): R
susceptibility test value (number given before S/I/R) (host strain YMC15/02/T28): 128
antibiotic susceptibility S/I/R (host strain YMC15/03/R1604): R
antibiotic susceptibility value (host strain YMC15/03/R1604): 128
susceptibility category (S/I/R) (host strain YMC15/03/R1604): R
susceptibility test value (number given before S/I/R) (host strain YMC15/03/R1604): 128
antibiotic susceptibility S/I/R (host strain YMC15/09/R1869): R
antibiotic susceptibility value (host strain YMC15/09/R1869): 128
susceptibility category (S/I/R) (host strain YMC15/09/R1869): R
susceptibility test value (number given before S/I/R) (host strain YMC15/09/R1869): 128
antibiotic susceptibility S/I/R (host strain YMC16/01/P11): R
antibiotic susceptibility value (host strain YMC16/01/P11): 128
susceptibility category (S/I/R) (host strain YMC16/01/P11): R
susceptibility test value (number given before S/I/R) (host strain YMC16/01/P11): 128
antibiotic susceptibility S/I/R (host strain YMC16/01/R123): R
antibiotic susceptibility value (host strain YMC16/01/R123): 128
susceptibility category (S/I/R) (host strain YMC16/01/R123): R
susceptibility test value (number given before S/I/R) (host strain YMC16/01/R123): 128
antibiotic susceptibility S/I/R (host strain YMC16/01/R198): R
antibiotic susceptibility value (host strain YMC16/01/R198): 128
susceptibility category (S/I/R) (host strain YMC16/01/R198): R
susceptibility test value (number given before S/I/R) (host strain YMC16/01/R198): 128
antibiotic susceptibility S/I/R (host strain YMC16/01/R353): R
